These results are taken from patent EP2496579B1 (priority 2009, dated 2011).

For test [1] the following is noted: relative to morphine; background statement; cited from earlier work.
The target in test [2] is human α4β2 neuronal nicotinic receptor (Homo sapiens, UniProt P17787+P43681). Description: Neuronal nicotinic receptor (α-BGTX-insensitive) (agonist radioligand) binding assay. Conditions: test compound at 1 µmole; 0.6 nM [3H]cytisine; transfected SH-SY5Y cells; inhibition of control radioligand specific binding; one single experiment; read-out: % inhibition, N neuronal alpha-BGTX-insensitive (alpha4beta 2) (agonist radioligand). The text has this: (§1) Four illustrative compounds of this invention have each been tested at a concentration of 1 µmole in a series of 6 binding assays for various […], including dopaminic receptors, neuronal nicotinic receptors and muscular nicotinic receptors. Details of each binding assay procedure are given below.
Neuronal nicotinic receptor (α-BGTX-insensitive) (agonists radioligand):
The purpose is to evaluate the affinity of compounds for the human α4β2 neuronal nicotinic receptor expressed in transfected SH-SY5Y cells, determined in a radioligand binding assay according to Gopalakrishnan et al in J. Pharmacol. Exp. Ther. (1996) 276:289. The experimental protocol is as follows. Cell membrane homogenates (30 µg protein) are incubated for 120 min at 4°C with 0.6 nM [^3H]cytisine in the absence or presence of the test compound in a buffer containing 50 mM Tris-HCl (pH 7.4), 120 mM NaCl, 5 mM KCI, 2.5 mM CaCl2 and 1 mM MgCl2. Nonspecific binding is determined in the presence of 10 µM nicotine bitartrate. Following incubation, the samples are filtered rapidly under vacuum through glass fiber filters (GF/B, Packard) presoaked with 0.3% PEI and rinsed several times with ice-cold 50 mM Tris-HCl using a 96-sample cell harvester (Unifilter, Packard). The filters are dried then counted for radioactivity in a scintillation counter (Topcount, Packard) using a scintillation cocktail (Microscint 0, Packard). The results are expressed as a percent inhibition of the control radioligand specific binding. The standard reference compound is nicotine bitartrate, which is tested in each experiment at several concentrations to obtain a competition curve from which its IC50 is calculated, and from which the % inhibition at 1 µM as indicated in the following table is obtained.

Test [3] concerns the target T1, agonist site of the human dopamine D5 receptor (Homo sapiens, UniProt P21918).
T1 construct: expressed in transfected cells; host or cells: GH4 cells (membrane homogenates)
The experiment in a line: Human dopamine D5 receptor (agonist radioligand) binding assay. The settings on record: test compound at 1 µmole; 7.5 nM [3H]dopamine; transfected GH4 cells; inhibition of control radioligand specific binding; one single experiment.
Excerpt: as §1
Human dopamine D5 receptor (agonist radioligand):
The purpose is to evaluate the affinity of compounds for the agonist site of the human dopamine D5 receptor in transfected GH4 cells determined in a radioligand binding assay according to Sunahara et al in Nature (1991) 350:614. The experimental protocol is as follows. Cell membrane homogenates (120 µg protein) are incubated for 60 minutes at 22°C with 7.5 nM [^3H]dopamine in the absence or presence of the test compound in a buffer containing 20 mM Tris-HCl (pH 7.4), 5 mM MgCl2, 0.8 mM DTT, 0.3 mM ascorbic acid and 0.1 mM pyrocatechol. Nonspecific binding is determined in the presence of 10 µM SCH 23390. Following incubation, the samples are filtered rapidly under vacuum through glass fiber filters (GF/B, Packard) 55re-soaked with 0.3% PEI and rinsed several times with ice-cold 50 mM Tris-HCl using a 96-sample cell harvester (Unifilter, Packard). The filters are dried then counted for radioactivity in a scintillation counter (Topcount, Packard) using a scintillation cocktail (Microscint 0, Packard). The results are expressed as a percent inhibition of the control radioligand specific binding. The standard reference compound is dopamine, which is tested in each experiment at several concentrations to obtain a competition curve from which its IC50 is calculated, and from which the % inhibition at 1 µM as indicated in the following table is obtained.

For test [4], the target named is human α7 neuronal nicotinic receptor (Homo sapiens, UniProt P36544). The experiment in a line: biochemical. Format: binding. Conditions: read-out: % inhibition, N neuronal alpha -BGTX-sensitive (alpha 7) (antagonist radioligand).
In test [5] the target is human muscle-type nicotinic receptor (Homo sapiens, UniProt P02708+P07510+Q07001). Description: biochemical. In kind it is binding. The settings on record: read-out: % inhibition, N muscle-type (h) (antagonist radioligand).
Test [6] addresses T2, Human dopamine D5 receptor (Homo sapiens, UniProt P21918).
T2 construct: expressed in transfected cells; host or cells: GH4 cells (membrane homogenates)
The experiment in a line: Human dopamine D5 receptor (antagonist radioligand) binding assay. Conditions: test compound at 1 µmole; 0.3 nM [3H]SCH 23390; transfected GH4 cells; inhibition of control radioligand specific binding; one single experiment.
Excerpt: as §1
Human dopamine D5 receptor (antagonist radioligand):
The purpose is to evaluate the affinity of compounds for the human dopamine […] in transfected GH4 cells determined in a radioligand binding assay according to Sunahara et al in Nature (1991) 350:614. The experimental protocol is as follows. Cell membrane homogenates (20 µg protein) are incubated for 60 minutes at 22°C with 0.3 nM [^3H]SCH 23390 in the absence or presence of the test compound in a buffer containing 50 mM Tris-HCl (pH 7.4), 120 mM NaCl, 5 mM KCI, 5 mM MgCl2 and 1 mM EDTA. Nonspecific binding is determined in the presence of 10 µM SCH 23390. […] The filters are dried then counted for radioactivity in a scintillation counter (Topcount, Packard) using a scintillation cocktail (Microscint 0, Packard). The results are expressed as a percent inhibition of the control radioligand specific binding. […]

The target of test [7] is T3, human dopamine D1 receptor (Homo sapiens, UniProt P21728).
T3 construct: expressed in transfected cells; host or cells: CHO cells (membrane homogenates)
The experiment in a line: Human dopamine D1 receptor (antagonist radioligand) binding assay. The settings on record: test compound at 1 µmole; 0.3 nM [3H]SCH 23390; transfected CHO cells; inhibition of control radioligand specific binding; one single experiment.
Excerpt: as §1
Human dopamine D1 receptor (antagonist radioligand):
The purpose is to evaluate the affinity of compounds for the human dopamine D1 receptor in transfected CHO cells determined in a radioligand binding assay according to Zhou et al in Nature (1990) 347:76. The experimental protocol is as follows. Cell membrane homogenates (48 µg protein) are incubated for 60 minutes at 22°C with 0.3 nM [^3H]SCH 23390 in the absence or presence of the test compound in a buffer containing 50 mM Tris-HCl (pH 7.4), 5 mM KCI, 5 mM MgCl2, 1.5 mM CaCl2 and 5 mM EDTA. Non-specific binding is determined in the presence of 1 µM SCH 23390. […] The filters are dried then counted for radioactivity in a scintillation counter (Topcount, Packard) using a scintillation cocktail (Microscint 0, Packard). The results are expressed as a percent inhibition of the control radioligand specific binding. […]

The structures appear in SMILES notation.

Chain of human α4β2 neuronal nicotinic receptor (P43681 29-627 limits assumed): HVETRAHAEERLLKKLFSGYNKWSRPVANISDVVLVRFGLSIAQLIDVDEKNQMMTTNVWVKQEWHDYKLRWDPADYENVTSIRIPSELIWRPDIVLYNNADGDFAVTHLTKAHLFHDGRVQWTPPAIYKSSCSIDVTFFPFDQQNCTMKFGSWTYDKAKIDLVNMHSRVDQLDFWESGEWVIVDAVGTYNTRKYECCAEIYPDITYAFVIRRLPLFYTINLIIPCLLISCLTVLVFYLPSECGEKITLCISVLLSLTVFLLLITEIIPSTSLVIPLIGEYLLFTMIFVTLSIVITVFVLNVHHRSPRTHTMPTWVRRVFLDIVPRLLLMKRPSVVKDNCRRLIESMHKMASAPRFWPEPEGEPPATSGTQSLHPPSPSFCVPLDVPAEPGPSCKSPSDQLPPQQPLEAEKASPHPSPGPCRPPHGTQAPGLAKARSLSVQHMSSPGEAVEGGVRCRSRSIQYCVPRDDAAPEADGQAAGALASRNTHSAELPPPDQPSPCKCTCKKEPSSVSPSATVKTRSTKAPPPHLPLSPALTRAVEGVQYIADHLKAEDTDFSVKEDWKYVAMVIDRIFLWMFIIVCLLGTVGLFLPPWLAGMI
Chain of human α4β2 neuronal nicotinic receptor (P17787 26-502): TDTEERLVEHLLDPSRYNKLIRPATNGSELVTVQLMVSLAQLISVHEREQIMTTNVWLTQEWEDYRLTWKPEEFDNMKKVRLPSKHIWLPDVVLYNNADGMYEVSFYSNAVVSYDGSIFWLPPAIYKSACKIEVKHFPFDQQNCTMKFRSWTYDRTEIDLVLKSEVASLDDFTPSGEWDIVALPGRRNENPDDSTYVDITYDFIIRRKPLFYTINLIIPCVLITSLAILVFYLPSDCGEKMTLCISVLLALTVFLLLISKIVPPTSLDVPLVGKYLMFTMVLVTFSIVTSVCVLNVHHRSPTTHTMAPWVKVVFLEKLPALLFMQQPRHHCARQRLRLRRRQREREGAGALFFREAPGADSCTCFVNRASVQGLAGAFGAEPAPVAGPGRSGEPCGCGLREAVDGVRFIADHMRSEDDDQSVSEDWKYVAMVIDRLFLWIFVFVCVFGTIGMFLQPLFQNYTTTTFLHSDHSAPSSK
T1 sequence (P21918 whole entry): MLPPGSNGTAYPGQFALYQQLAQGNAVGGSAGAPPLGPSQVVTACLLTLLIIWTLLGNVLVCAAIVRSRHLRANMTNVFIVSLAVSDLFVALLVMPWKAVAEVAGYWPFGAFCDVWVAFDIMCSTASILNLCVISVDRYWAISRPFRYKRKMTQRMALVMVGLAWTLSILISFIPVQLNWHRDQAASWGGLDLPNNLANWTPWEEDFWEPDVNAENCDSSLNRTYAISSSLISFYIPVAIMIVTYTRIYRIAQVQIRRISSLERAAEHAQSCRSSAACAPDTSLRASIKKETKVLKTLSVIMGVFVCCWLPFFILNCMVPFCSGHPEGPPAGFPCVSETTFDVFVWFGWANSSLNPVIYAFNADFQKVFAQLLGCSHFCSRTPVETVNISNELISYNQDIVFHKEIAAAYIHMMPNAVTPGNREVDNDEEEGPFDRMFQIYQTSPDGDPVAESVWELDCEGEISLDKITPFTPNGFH
Chain of human muscle-type nicotinic receptor (P02708 21-457): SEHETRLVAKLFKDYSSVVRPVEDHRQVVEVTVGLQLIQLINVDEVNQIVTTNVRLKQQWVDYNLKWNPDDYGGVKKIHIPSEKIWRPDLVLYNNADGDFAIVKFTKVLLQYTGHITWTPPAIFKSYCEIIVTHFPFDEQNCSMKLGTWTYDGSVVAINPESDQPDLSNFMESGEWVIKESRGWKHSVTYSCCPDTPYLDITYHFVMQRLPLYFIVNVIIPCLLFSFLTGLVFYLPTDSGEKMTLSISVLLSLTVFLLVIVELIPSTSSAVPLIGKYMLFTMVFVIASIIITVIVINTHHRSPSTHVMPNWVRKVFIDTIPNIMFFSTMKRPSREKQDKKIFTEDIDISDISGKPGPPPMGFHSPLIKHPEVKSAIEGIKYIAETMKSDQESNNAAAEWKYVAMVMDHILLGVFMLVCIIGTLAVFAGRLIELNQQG
Chain of human muscle-type nicotinic receptor (P07510 23-517): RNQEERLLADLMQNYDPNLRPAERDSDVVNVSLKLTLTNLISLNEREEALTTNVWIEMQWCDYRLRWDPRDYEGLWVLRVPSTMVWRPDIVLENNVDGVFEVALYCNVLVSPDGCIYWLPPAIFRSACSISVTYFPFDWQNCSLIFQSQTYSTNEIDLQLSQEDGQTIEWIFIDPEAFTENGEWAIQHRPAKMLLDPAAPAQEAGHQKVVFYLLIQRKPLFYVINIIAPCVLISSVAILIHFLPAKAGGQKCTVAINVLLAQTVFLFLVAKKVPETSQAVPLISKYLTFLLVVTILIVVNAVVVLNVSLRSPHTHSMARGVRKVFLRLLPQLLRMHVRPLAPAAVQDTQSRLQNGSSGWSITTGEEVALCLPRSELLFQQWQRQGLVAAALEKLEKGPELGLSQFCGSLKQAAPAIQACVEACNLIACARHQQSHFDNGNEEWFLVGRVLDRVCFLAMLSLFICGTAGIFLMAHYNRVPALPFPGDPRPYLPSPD
Chain of human muscle-type nicotinic receptor (P11230 24-501, further chain): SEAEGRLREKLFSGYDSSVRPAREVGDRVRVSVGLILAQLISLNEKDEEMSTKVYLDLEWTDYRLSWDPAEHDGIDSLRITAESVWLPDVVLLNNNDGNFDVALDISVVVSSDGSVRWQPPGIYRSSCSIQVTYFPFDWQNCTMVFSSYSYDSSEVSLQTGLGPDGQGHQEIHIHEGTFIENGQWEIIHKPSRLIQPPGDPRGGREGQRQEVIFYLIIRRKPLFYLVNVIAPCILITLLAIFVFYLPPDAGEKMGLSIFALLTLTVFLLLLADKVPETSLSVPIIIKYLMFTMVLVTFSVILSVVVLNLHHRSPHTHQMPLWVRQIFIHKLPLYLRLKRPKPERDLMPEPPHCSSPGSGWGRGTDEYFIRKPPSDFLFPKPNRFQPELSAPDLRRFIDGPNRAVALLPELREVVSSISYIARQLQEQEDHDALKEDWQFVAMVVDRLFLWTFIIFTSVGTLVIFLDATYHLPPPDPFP
Chain of human muscle-type nicotinic receptor (Q07001 22-517): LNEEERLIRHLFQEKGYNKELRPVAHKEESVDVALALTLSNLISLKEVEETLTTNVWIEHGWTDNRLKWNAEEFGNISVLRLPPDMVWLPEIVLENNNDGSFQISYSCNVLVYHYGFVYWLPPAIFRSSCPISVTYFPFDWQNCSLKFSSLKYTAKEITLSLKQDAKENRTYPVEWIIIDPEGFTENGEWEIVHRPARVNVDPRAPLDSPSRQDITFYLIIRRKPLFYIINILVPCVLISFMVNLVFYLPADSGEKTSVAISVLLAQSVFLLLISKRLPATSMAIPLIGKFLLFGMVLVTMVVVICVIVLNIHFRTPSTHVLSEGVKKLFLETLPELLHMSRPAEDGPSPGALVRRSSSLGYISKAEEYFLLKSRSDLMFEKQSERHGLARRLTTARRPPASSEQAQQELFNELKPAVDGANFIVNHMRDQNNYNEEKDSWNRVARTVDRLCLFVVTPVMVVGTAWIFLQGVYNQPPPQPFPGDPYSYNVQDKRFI
Chain of human α7 neuronal nicotinic receptor (P36544 23-502): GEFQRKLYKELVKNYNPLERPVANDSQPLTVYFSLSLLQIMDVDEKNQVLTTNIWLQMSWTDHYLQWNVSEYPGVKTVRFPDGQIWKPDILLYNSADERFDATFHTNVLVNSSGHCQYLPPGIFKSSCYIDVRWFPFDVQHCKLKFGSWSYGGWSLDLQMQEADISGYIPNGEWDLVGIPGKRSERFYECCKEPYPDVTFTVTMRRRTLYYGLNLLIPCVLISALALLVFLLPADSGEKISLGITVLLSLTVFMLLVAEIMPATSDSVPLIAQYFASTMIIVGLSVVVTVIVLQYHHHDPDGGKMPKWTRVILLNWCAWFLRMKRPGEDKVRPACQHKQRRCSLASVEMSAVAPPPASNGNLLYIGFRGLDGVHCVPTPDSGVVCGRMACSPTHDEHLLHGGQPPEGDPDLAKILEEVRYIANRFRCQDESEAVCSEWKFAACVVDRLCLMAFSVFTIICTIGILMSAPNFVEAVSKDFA
T3 sequence (P21728 whole entry): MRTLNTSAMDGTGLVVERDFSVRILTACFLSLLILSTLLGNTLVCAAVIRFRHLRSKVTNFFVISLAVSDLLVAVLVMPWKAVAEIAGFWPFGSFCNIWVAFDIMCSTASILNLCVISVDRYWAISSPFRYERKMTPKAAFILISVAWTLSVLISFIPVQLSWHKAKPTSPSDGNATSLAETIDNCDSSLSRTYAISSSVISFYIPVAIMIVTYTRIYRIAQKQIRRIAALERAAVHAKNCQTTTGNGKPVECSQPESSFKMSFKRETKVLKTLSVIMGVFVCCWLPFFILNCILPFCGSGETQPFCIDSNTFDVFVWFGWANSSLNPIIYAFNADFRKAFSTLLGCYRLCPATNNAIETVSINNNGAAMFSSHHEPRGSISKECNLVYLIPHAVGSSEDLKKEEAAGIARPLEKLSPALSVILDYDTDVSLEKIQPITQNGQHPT
T2 sequence (P21918 whole entry): as the sequence (P21918 whole entry) above

Consider `Clc1ccc(C2CC3CCC2N3)cn1` (stereo not drawn) [epibatidine], for which the “analgesic potency, higher than that of morphine” value in test [1] is listed as “about 200 fold”.
A word on the inhibition: it is the relative decrease from the control value, in per cent. Take `CCN1CCC2CC1(C(=O)c1ccc(Cl)nc1)C2` [Comp.9m]: the inhibition at 1 µM in test [2] is 4%; in test [3], -13%. Also, the inhibition at 50 pM in test [4] is -1%. Further, the inhibition at 0.0005 µM in test [5] was -8%.
In the case of `OC(c1cccnc1)C12CC(CCN1)C2` (stereo not drawn) [Comp.11], the inhibition at 50 pM in test [4] was -1%. In test [5], the inhibition at 0.0005 µM turned out to be 17%.
In the case of `NCC12CC(CCN1Cc1ccccn1)C2` [Comp.20], the inhibition at 1 µM is 11% in test [2], 6% in test [3], 31% in test [6] and -3% in test [7]. For the same molecule, in test [4], the inhibition at 50 pM is 12%. In addition, the inhibition at 0.0005 µM in test [5] was 32%.
On to `CCN1CCC2CC1(C(O)c1cccnc1)C2` (stereo not drawn) [Comp.19a], for which the inhibition at 1 µM was 24% in test [2], -2% in test [3] and 9% in test [7]. Moreover, the inhibition at 50 pM in test [4] was found to be 3%. For the same molecule, the inhibition at 0.0005 µM in test [5] worked out at 33%.
